The test system of one test is HeLa. The test is described as follows: Cytotoxicity against human HeLa cells assessed as cell growth inhibition after 48 hrs by MTT assay. The test is classed as functional, cell-based. (In general: Formazan colour is commonly taken as a measure of viable cells.)
In the next test the test system is A549. The test is described as follows: Cytotoxicity against human A549 cells assessed as cell growth inhibition after 48 hrs by MTT assay. The test is classed as functional, cell-based. The note with it: A549, 48 h.
The next test deals with MDA-MB-231. The test is described as follows: Cytotoxicity against human MDA-MB-231 cells assessed as cell growth inhibition after 48 hrs by MTT assay. The test is classed as functional, cell-based. The note with it: MDA-MB-231, 48 h.
For another test, the system named is HT-29. The experiment in a line: Cytotoxicity against human HT-29 cells assessed as cell growth inhibition after 48 hrs by MTT assay. Format: functional, cell-based. The settings on record: HT-29, 48 h.
Test [1] is described as follows: Cytotoxicity against human DU145 cells assessed as cell growth inhibition after 48 hrs by MTT assay. Format: functional, cell-based. The note with it: DU-145, 48 h.
Test [2] has as its system DU-145. The experiment in a line: Induction of apoptosis in human DU145 cells at assessed as early apoptotic cells 1 uM after 48 hrs by annexin V-FITC/PI staining based flow cytometry (reference value: 2.13 %). Format: functional.
Test [3] in a line: Cell cycle arrest in human DU145 cells assessed as accumulation at S phase at 1 uM after 48 hrs by propidium iodide staining based flow cytometry (reference value: 1.59 %). The test is classed as functional. The settings on record: DU-145. In general terms: In flow cytometry, cells or beads pass a laser one at a time.
Test [4] relates to DU-145. The experiment in a line: Induction of apoptosis in human DU145 cells assessed as viable cells at 2 uM after 48 hrs by annexin V-FITC/PI staining based flow cytometry (reference value: 95.57 %). Format: functional. The settings on record: DU-145, 48 h, read-out: Activity.
Test [5] has as its system DU-145. The test is described as follows: Change in mitochondrial membrane potential in human DU145 cells at 1 uM after 48 hrs by JC-1 staining based flow cytometry (reference value: 95.6%). The test is classed as functional.
For test [6], the system named is DU-145. The experiment in a line: Induction of apoptosis in human DU145 cells assessed as late apoptotic cells at 1 uM after 48 hrs by annexin V-FITC/PI staining based flow cytometry (reference value: 1.63 %). The test is classed as functional.
Test [7] deals with DU-145. The experiment in a line: Change in mitochondrial membrane potential in human DU145 cells at 2 uM after 48 hrs by JC-1 staining based flow cytometry (reference value: 95.6%). The test is classed as functional.
Test [8] is described as follows: Cell cycle arrest in human DU145 cells assessed as accumulation at G0/G1 phase at 1 uM after 48 hrs by propidium iodide staining based flow cytometry (reference value: 81.67 %). The settings on record: DU-145. The test is classed as functional.
The nature of test [9]: Cell cycle arrest in human DU145 cells assessed as accumulation at G2/M phase at 2 uM after 48 hrs by propidium iodide staining based flow cytometry (reference value: 5.96 %). The settings on record: DU-145. Format: functional.
A short description of test [10]: Down regulation of CDK4 expression in human DU145 cells at 1 to 2 uM after 48 hrs by Western blot analysis. Format: functional, cell-based. The note with it: DU-145. (Immunoblotting shows a protein as a band on a membrane.)
Test [11] concerns DU-145. The test is described as follows: Induction of apoptosis in human DU145 cells assessed as viable cells at 1 uM after 48 hrs by annexin V-FITC/PI staining based flow cytometry (reference value: 95.57 %). Format: functional. The note with it: DU-145, 48 h, read-out: Activity.
For test [12], the system named is DU-145. The test is described as follows: Induction of apoptosis in human DU145 cells assessed as early apoptotic cells at 2 uM after 48 hrs by annexin V-FITC/PI staining based flow cytometry (reference value: 2.13 %). The test is classed as functional.
Test [13] can be described thus: Cell cycle arrest in human DU145 cells assessed as accumulation at S phase at 2 uM after 48 hrs by propidium iodide staining based flow cytometry (reference value: 1.59 %). The note with it: DU-145. The test is classed as functional.
Test [14] can be described thus: Cell cycle arrest in human DU145 cells assessed as accumulation at G2/M phase at 1 uM after 48 hrs by propidium iodide staining based flow cytometry (reference value: 5.96 %). Format: functional. The note with it: DU-145.
Test [15] is described as follows: Up regulation of Cip1/p21 expression in human DU145 cells at 1 to 2 uM after 48 hrs by Western blot analysis. The test is classed as functional, cell-based. The note with it: DU-145.
Test [16] can be described thus: Up regulation of Kip1/p27 expression in human DU145 cells at 1 to 2 uM after 48 hrs by Western blot analysis. Format: functional, cell-based. The settings on record: DU-145.
The subject of test [17] is DU-145. The experiment in a line: Induction of apoptosis in human DU145 cells assessed as necrotic cells at 2 uM after 48 hrs by annexin V-FITC/PI staining based flow cytometry (reference value: 0.67 %). Format: functional.
For test [18], the system named is DU-145. The test is described as follows: Induction of apoptosis in human DU145 cells assessed as necrotic cells at 1 uM after 48 hrs by annexin V-FITC/PI staining based flow cytometry (reference value: 0.67 %). Format: functional.
Test [19] can be described thus: Cell cycle arrest in human DU145 cells assessed as accumulation at sub G1 phase at 2 uM after 48 hrs by propidium iodide staining based flow cytometry (reference value: 8.20 %). Format: functional. The note with it: DU-145.
Test [20] in a line: Cell cycle arrest in human DU145 cells assessed as accumulation at G0/G1 phase at 2 uM after 48 hrs by propidium iodide staining based flow cytometry (reference value: 81.67 %). Format: functional. The note with it: DU-145.
In test [21] the test system is DU-145. The test is described as follows: Induction of apoptosis in human DU145 cells assessed as late apoptotic cells at 2 uM after 48 hrs by annexin V-FITC/PI staining based flow cytometry (reference value: 1.63 %). Format: functional.
A short description of test [22]: Cell cycle arrest in human DU145 cells assessed as accumulation at sub G1 phase at 1 uM after 48 hrs by propidium iodide staining based flow cytometry (reference value: 8.20 %). Format: functional. The settings on record: DU-145.

Structures are written as SMILES. Active and inactive are the calls of the source. The calls are words filed in the database; no cut-off is given here.

Regarding `COc1ccc2c(c1)C1(Nc3ccccc3-n3cccc31)C(=O)N2` (stereo not given), the IC50 stood at 14.8 µM with HeLa; 13.8 µM with A549; 15.7 µM with MDA-MB-231; 14.7 µM with HT-29; 11 µM in [1].

Regarding `O=C1Nc2ccc(I)cc2C12Nc1ccccc1-n1cccc12` (stereo not given), the IC50 came to 16.7 µM in the test on HeLa; 22.4 µM with A549; 27.1 µM in the test with MDA-MB-231; 19 µM in the test on HT-29; 15.7 µM in [1].

`O=C1Nc2ccc(Br)cc2C12Nc1ccccc1-n1cccc12` (stereo not given): the IC50 amounted to 16.4 µM in the test on HeLa; 4.9 µM in the test with A549; 29.7 µM in the test with MDA-MB-231; 17 µM in the test with HT-29; 3.98 µM in test [1].

As to `O=C1N(Cc2ccccc2)c2ccccc2C12Nc1ccccc1-n1cccc12` (stereo not given), the concentration for half-maximal inhibition (IC50) stood at 20 µM in the test with HeLa; 17 µM in the test on A549; 26.2 µM with MDA-MB-231; 17.4 µM with HT-29; 13.2 µM in test [1].

As for `O=C1N(Cc2ccc3c(c2)OCO3)c2ccc(Cl)cc2C12Nc1ccccc1-n1cccc12` (stereo not given), the Activity was 21.95% in the test on DU-145 [2]; 1.21% in test [3]; 87.7% in the test on DU-145 [5]; 15.42% in the test with DU-145 [6]; 72.2% in the test on DU-145 [7]; 85.2% in test [8]. The Activity came out at 4.46% in test [9]; 27.36% in the test on DU-145 [12]; 2.94% in test [13]; 4.2% in test [14]; 1.63% in the test on DU-145 [17]; 2% in the test on DU-145 [18]. For the same compound, the Activity in test [19] was found to be 29.1%; in [20], 58.8%; in the test with DU-145 [21], 16.03%; in [22], 6.98%. Besides, in the test on DU-145 [4], the viability at 2 µM worked out at 55%. The IC50 in the test with HeLa turned out to be 2.45 µM; in the test on A549, 2.11 µM; in the test with MDA-MB-231 it was 2.34 µM; in the test with HT-29, 1.63 µM; in test [1], 1.16 µM. For the same compound, the result in [10], in [15] and in test [16] was Active. Moreover, the viability at 1 µM with DU-145 [11] is 60.6%.

Regarding `O=C1Nc2ccc([N+](=O)[O-])cc2C12Nc1ccccc1-n1cccc12` (stereo not given), the IC50 in the test with HeLa came to 12.9 µM; with A549, 16.1 µM; with MDA-MB-231 it was 17.4 µM; in the test with HT-29 it was 15.6 µM; in test [1], 22.7 µM.

With `O=C1Nc2ccc(Cl)cc2C12Nc1ccccc1-n1cccc12` (stereo not given), the half-maximal inhibitory concentration (IC50) was found to be 4.88 µM in the test on HeLa; 4.81 µM in the test on A549; 26.3 µM in the test on MDA-MB-231; 11 µM in the test on HT-29; 4.79 µM in [1].

Consider `O=C1Nc2c(F)cccc2C12Nc1ccccc1-n1cccc12` (stereo not given), for which the IC50 was 12.4 µM with HeLa; 11.3 µM with A549; 15.9 µM with MDA-MB-231; 12.7 µM in the test on HT-29; 12.7 µM in test [1].

For `O=C1N(Cc2ccccc2)c2ccc(Br)cc2C12Nc1ccccc1-n1cccc12` (stereo not given), the concentration for half-maximal inhibition (IC50) was 21 µM with HeLa; 16.6 µM in the test on A549; 23.7 µM with MDA-MB-231; 18.1 µM in the test with HT-29; 11.2 µM in test [1].

Take `COc1cccc2c1C(=O)c1c(O)c3c(c(O)c1C2=O)C[C@@](O)(C(=O)CO)C[C@@H]3O[C@H]1C[C@H](N)[C@H](O)[C@H](C)O1` [DOXORUBICIN]: the IC50 in the test on A549 was 1.06 µM; in the test with MDA-MB-231, 1.67 µM; with HT-29, 1.16 µM; in [1], 1.82 µM.

As for `O=C1Nc2ccccc2C12Nc1ccccc1-n1cccc12` (stereo not given), the 50% inhibitory concentration (IC50) in the test with HeLa was determined as 4.57 µM; with A549, 7.1 µM; in the test on MDA-MB-231, 8.84 µM; in the test with HT-29, 4.11 µM; in [1], 6.03 µM.

For `Cc1ccc2c(c1)C1(Nc3ccccc3-n3cccc31)C(=O)N2` (stereo not given), the IC50 with HeLa was determined as 11.2 µM; in the test on A549, 13.5 µM; in the test with MDA-MB-231, 22.1 µM; in the test on HT-29, 14.5 µM; in test [1], 12.5 µM.

In the case of `O=C1N(Cc2ccccc2)c2ccc(Cl)cc2C12Nc1ccccc1-n1cccc12` (stereo not given), the IC50 in the test with HeLa turned out to be 4.86 µM; in the test with A549, 4.79 µM; with MDA-MB-231, 26.6 µM; in the test with HT-29, 19 µM; in test [1] it was 4.71 µM.

Take `O=C1N(Cc2ccc3c(c2)OCO3)c2ccccc2C12Nc1ccccc1-n1cccc12` (stereo not given): the IC50 in the test on HeLa was 4.53 µM; in the test on A549, 7.59 µM; in the test with MDA-MB-231 it was 30 µM; in the test on HT-29, 15.1 µM; in test [1], 3.98 µM.

`O=C1Nc2ccc(F)cc2C12Nc1ccccc1-n1cccc12` (stereo not given): the IC50 stood at 15.1 µM in the test with HeLa; 23.4 µM in the test with A549; 31.4 µM in the test with MDA-MB-231; 15.8 µM in the test with HT-29; 12.7 µM in test [1].

As usually defined, the IC50 is the concentration at which inhibition is half-maximal.

Source of the values: ChEMBL document CHEMBL3763077, “Discovery of pyrrolospirooxindole derivatives as novel cyclin dependent kinase 4 (CDK4) inhibitors by catalyst-free, green approach” (Eur J Med Chem, 2016).
